Tested on: SARS-CoV-2 pseudovirus (VSV-ΔG) entry into ACE2/Furin expressing host cells (Vero-E6)
Assay: microbe, parasite or virus in culture
Assay type: cell-based, SARS-CoV-2 pseudovirus / African Green Monkey cells
Conditions: Severe acute respiratory syndrome-related coronavirus, Vero C1008, 20 h, read-out: IC50, inhibition of pseudovirus entry (VSV-ΔG)

Compound	IC50
O=C(Nc1ccc(-c2ccc(C(=O)Nc3cccc4cc(S(=O)(=O)O)ccc34)cc2)cc1)c1ccc([N+](=O)[O-])cc1 [Compound A2, 5-(4′-(4-Nitrobenzamido)biphenyl-4-ylcarboxamido)naphthalene-2-sulfonic acid]	7 µM
Nc1c(/N=N/c2ccc(-c3ccc(/N=N/c4cc(S(=O)(=O)O)c5ccccc5c4N)cc3)cc2)cc(S(=O)(=O)O)c2ccccc12 [Congo red]	16 µM
